≈ marks a conversion by molar mass, not a printed value.

A short description of the first data set: Preliminary evaluation of uranine fluorescence stability (pH, chlorine). Type of data set: physicochemical. The note with it: about 1-4 ppm of free chlorine. How it is done: Fluorescent molecular markers are subjected to screening criteria, including low toxicity, low background fluorescence in water, economic feasibility for long term use, and commercial availability. Screening criteria are also based on experiments, including stability with light exposure, strong fluorescent intensity, stability under various pH conditions, and stability under chlorine exposure.
Uranine stock solutions were prepared from reagent-grade uranine powder (Fisher Scientific, Pittsburgh, Pa.) dissolved in ultra-pure deionized water from a Milli-Q water purification system (Millipore Corp., San Jose, Calif.). RO desalting runs were conducted using low salinity potable tap water (average reported total dissolved solids (TDS) of about 265 mg/l, TOC of about 1.7 mg/l, and total hardness of about 113 mg/l as CaCO3).
For `O=C([O-])c1ccccc1-c1c2ccc(=O)cc-2oc2cc([O-])ccc12.[Na+].[Na+]` [Uranine], the “chlorine tolerance of fluorescence” value is on record as “high level of chlorine tolerance”.

Still in this data set, the particulars now being: typical RO process pH operating range, pH of about 6-8.
For the molecule `O=C([O-])c1ccccc1-c1c2ccc(=O)cc-2oc2cc([O-])ccc12.[Na+].[Na+]` [Uranine], the “stability of fluorescence intensity with pH” value is “stable fluorescence intensity”.

Experiment in the next data set: not given
To be noted: cited from earlier work.
Consider Amidorhodamine G, for which the “Solubility in Water” value is “very soluble”.
Take `O=S(=O)([O-])c1cc(O)c2ccc3c(S(=O)(=O)[O-])cc(S(=O)(=O)[O-])c4ccc1c2c34.[Na+].[Na+].[Na+]` [Pyranine]: the “Solubility in Water” value is on record as 178 mg/mL.
Turning to `O=C(O)c1c(Cl)c(Cl)c(Cl)c(Cl)c1-c1c2cc(I)c(=O)c(I)c-2oc2c(I)c(O)c(I)cc12` [Bengal rose], the “Solubility in Water” value was 100 mg/mL (≈ 103 mM).
Erythrosine: the “Solubility in Water” value is recorded as 20 mg/mL.
Consider `CCN(CC)c1ccc2c(-c3ccc(S(=O)(=O)O)cc3S(=O)(=O)[O-])c3ccc(=[N+](CC)CC)cc-3oc2c1` [Sulforhodamine B], for which the “Solubility in Water” value is reported as 10 mg/mL (≈ 17.9 mM).
Regarding `O=S(=O)([O-])c1ccccc1C=Cc1ccc(-c2ccc(C=Cc3ccccc3S(=O)(=O)[O-])cc2)cc1.[Na+].[Na+]` [Tinopal CBS-X], the “Solubility in Water” value is 25 mg/mL.
With `Cc1ccc(N2C(=O)c3cccc4c(N)c(S(=O)(=O)[O-])cc(c34)C2=O)cc1.[Na+]` [Lissamine FF], the “Solubility in Water” value is given as 40 mg/mL.
On to Lanaperl fast yellow, for which the “Solubility in Water” value is reported as “very soluble”.
As for Sodium naphtionate, the “Solubility in Water” value was 240 mg/mL.
Consider `O=C(O)c1ccccc1-c1c2cc([N+](=O)[O-])c(=O)c(Br)c-2oc2c(Br)c(O)c([N+](=O)[O-])cc12` [Eosin B], for which the “Solubility in Water” value is recorded as 40 mg/mL (≈ 69 mM).
